Measured values published in patent US20240083857A1, “2-Methyl-Quinazolines” (Bayer Pharma Aktiengesellschaft, priority 2017, published 2024).

Tests used:
[1] = biological target: human SOS1 (nucleotide exchange of K-Ras^G12C) (Homo sapiens, UniProt Q07889); experiment: Biochemical assay 2: K-Ras^G12C activation assay by hSOS1 at high GTP concentration (HTRF); details: high GTP; for IC50: read-out: Assay 2 (KRAS-Activation by SOS high GTP) activity expressed as IC50
[2] = biological target: human SOS1 (loading of human K-Ras^G12C-GDP with fluorescent GTP-analog) (Homo sapiens, UniProt Q07889); experiment: Biochemical assay 3: K-Ras^G12C activation assay by hSOS1 (HTRF); details: no GTP; for IC50: read-out: Assay 3 (KRAS-Activation by SOS no GTP) activity expressed as IC50; for inhibition at 20 µM: read-out: Assay 3 (KRAS-Activation by SOS no GTP) activity expressed as % inhibition at 20 μM

Molecule `COc1cc2nc(C)nc(NC(C)c3ccc(-c4cccc(C(N)=O)c4)s3)c2cc1OC` (centres unmarked) [Example 241, 3-(5-{1-[(6,7-dimethoxy-2-methylquinazolin-4-yl)amino]ethyl}thiophen-2-yl)benzamide] has an IC50 [1] of 1440 nM and an IC50 [2] of 1310 nM.

Work on `CCOc1ccccc1-c1ccc(C(C)Nc2nc(C)nc3cc(OC)c(OC)cc23)s1` (centres unmarked) [Example 232, N-{1-[5-(2-ethoxyphenyl)thiophen-2-yl]ethyl}-6,7-dimethoxy-2-methylquinazolin-4-amine] yielded an IC50 [1] of 9290 nM and an IC50 [2] of 4040 nM.

For `COc1cc2nc(C)nc(NC(C)c3ccc(-c4cnn(CC(N)=O)c4)s3)c2cc1OC` (centres unmarked) [Example 249, 2-[4-(5-{1-[(6,7-dimethoxy-2-methylquinazolin-4-yl)amino]ethyl}thiophen-2-yl)-1H-pyrazol-1-yl]acetamide], the IC50 [1] was 5310 nM and the IC50 [2] was 8790 nM.

`COc1cc2nc(C)nc(NC(C)c3csc(-c4cnn(CCO)c4)c3)c2cc1OC` (centres unmarked) [Example 251, 2-[4-(4-{1-[(6,7-dimethoxy-2-methylquinazolin-4-yl)amino]ethyl}thiophen-2-yl)-1H-pyrazol-1-yl]ethanol] was tested, and the IC50 [1] was 5840 nM and the inhibition at 20 µM [2] was 52%.

Work on `COc1cc2nc(C)nc(NC(C)c3ccc(-c4ccccc4CN4CCC(C(N)=O)CC4)s3)c2cc1OC` (centres unmarked) [Example 179, 1-[2-(5-{1-[(6,7-dimethoxy-2-methylquinazolin-4-yl)amino]ethyl}thiophen-2-yl)benzyl]piperidine-4-carboxamide] yielded an IC50 [1] of 245 nM and an IC50 [2] of 214 nM.

`COc1cc2nc(C)nc(NC(C)c3ccc(-c4ccccc4CO)s3)c2cc1OC` (centres unmarked) [Example 244, [2-(5-{1-[(6,7-dimethoxy-2-methylquinazolin-4-yl)amino]ethyl}thiophen-2-yl)phenyl]methanol] showed an IC50 [1] of 401 nM and an IC50 [2] of 444 nM.

In the case of `COc1cc2nc(C)nc(NC(C)c3ccc(-c4cnn(C5CCCC5)c4)s3)c2cc1OC` (centres unmarked) [Example 221, N-{1-[5-(1-cyclopentyl-1H-pyrazol-4-yl)thiophen-2-yl]ethyl}-6,7-dimethoxy-2-methylquinazolin-4-amine], the IC50 [1] is reported as 4650 nM and the IC50 [2] is reported as 4810 nM.

`COc1cc2nc(C)nc(NC(C)c3ccc(-c4ccccc4CN4CCC[C@H]4CN(C)C)s3)c2cc1OC` (stereo partly drawn) [Example 185, N-[1-{5-[2-({(2S)-[(dimethylamino)methyl]pyrrolidin-1-yl}methyl)phenyl]thiophen-2-yl}ethyl]-6,7-dimethoxy-2-methylquinazolin-4-amine] gave an IC50 [1] of 344 nM and an IC50 [2] of 323 nM.

Work on `COc1cc2nc(C)nc(NC(C)c3cccc4c3CCCC4)c2cc1OC` (centres unmarked) [Example 11, 6,7-dimethoxy-2-methyl-N-[1-(5,6,7,8-tetrahydronaphthalen-1-yl)ethyl]quinazolin-4-amine] yielded an IC50 [1] of 221 nM and an IC50 [2] of 540 nM.

Molecule `COc1cc2nc(C)nc(N[C@H](C)c3ccc(F)cc3)c2cc1OC` [Example 12, N-[(1R)-1-(4-fluorophenyl)ethyl]-6,7-dimethoxy-2-methylquinazolin-4-amine] has an IC50 [1] of 578 nM and an IC50 [2] of 1290 nM.

For `COc1cc2nc(C)nc(NC(C)c3cccc(Oc4ccccc4)c3)c2cc1OC` (single isomer, unassigned; enantiomer 1) [Example 228, 6,7-dimethoxy-2-methyl-N-[1-(3-phenoxyphenyl)ethyl]quinazolin-4-amine, Enantiomer 1], the IC50 [1] was 647 nM and the IC50 [2] was 1430 nM.

`COc1cc2nc(C)nc(NC(C)c3cccc(Oc4ccccc4)c3)c2cc1OC` (centres unmarked) [Example 215, 6,7-dimethoxy-2-methyl-N-[1-(3-phenoxyphenyl)ethyl]quinazolin-4-amine] was tested, and the IC50 [1] was 1160 nM and the IC50 [2] was 2950 nM.

`COc1cc2nc(C)nc(NC(C)c3ccc(-c4ccc(F)cc4CN)s3)c2cc1OC` (centres unmarked) [Example 234, N-[1-{5-[2-(aminomethyl)-4-fluorophenyl]thiophen-2-yl}ethyl]-6,7-dimethoxy-2-methylquinazolin-4-amine] showed an IC50 [1] of 65.4 nM and an IC50 [2] of 92.1 nM.

Molecule `C=Cc1ccccc1-c1ccc(C(C)Nc2nc(C)nc3cc(OC)c(OC)cc23)s1` (centres unmarked) [Example 248, N-{1-[5-(2-ethenylphenyl)thiophen-2-yl]ethyl}-6,7-dimethoxy-2-methylquinazolin-4-amine] has an IC50 [1] of 8080 nM and an IC50 [2] of 8430 nM.

For `COc1cc2nc(C)nc(NC(C)c3ccc(-c4ccc(F)c5ccccc45)s3)c2cc1OC` (centres unmarked) [Example 233, N-{1-[5-(4-fluoronaphthalen-1-yl)thiophen-2-yl]ethyl}-6,7-dimethoxy-2-methylquinazolin-4-amine], the IC50 [1] was 2000 nM and the IC50 [2] was 16100 nM.

`COc1cc2nc(C)nc(NC(C)c3cccc4nn(C)cc34)c2cc1OC` (centres unmarked) [Example 9, 6,7-dimethoxy-2-methyl-N-[1-(2-methyl-2H-indazol-4-yl)ethyl]quinazolin-4-amine] showed an IC50 [1] of 1370 nM and an IC50 [2] of 5960 nM.

For `COc1cc2nc(C)nc(NC(C)c3ccc(-c4cnc5n4CCC5)s3)c2cc1OC` (centres unmarked) [Example 219, N-{1-[5-(6,7-dihydro-5H-pyrrolo[1,2-a]imidazol-3-yl)thiophen-2-yl]ethyl}-6,7-dimethoxy-2-methylquinazolin-4-amine], the IC50 [1] was 570 nM and the IC50 [2] was 908 nM.

In the case of `COc1cc2nc(C)nc(NC(C)c3ccc(F)c4[nH]ncc34)c2cc1OC` (centres unmarked) [Example 5, N-[1-(7-fluoro-1H-indazol-4-yl)ethyl]-6,7-dimethoxy-2-methylquinazolin-4-amine], the IC50 [1] is reported as 1300 nM and the IC50 [2] is reported as 5060 nM.

With `COc1cc2nc(C)nc(N[C@H](C)c3cccc(C#N)c3)c2cc1OC` [Example 194, 3-{(1R)-1-[(6,7-dimethoxy-2-methylquinazolin-4-yl)amino]ethyl}benzonitrile] the IC50 [1] was 594 nM and the IC50 [2] was 2430 nM.

With `COC(=O)c1cc2c(C(C)Nc3nc(C)nc4cc(OC)c(OC)cc34)cccc2s1` (centres unmarked) [Example 3, methyl 4-{1-[(6,7-dimethoxy-2-methylquinazolin-4-yl)amino]ethyl}-1-benzothiophene-2-carboxylate] the IC50 [1] was 115 nM and the IC50 [2] was 231 nM.

`Cc1nc(N[C@H](C)c2cccc3ccccc23)c2ccccc2n1` [Example 186, 2-methyl-N-[(1R)-1-(naphthalen-1-yl)ethyl]quinazolin-4-amine] gave an IC50 [1] of 3310 nM and an inhibition at 20 µM [2] of 22%.

`COc1cc2nc(C)nc(N[C@H](C)c3ccc(C(N)=O)cc3)c2cc1OC` [Example 192, 4-{(1R)-1-[(6,7-dimethoxy-2-methylquinazolin-4-yl)amino]ethyl}benzamide] showed an IC50 [1] of 4090 nM and an IC50 [2] of 14200 nM.

`COc1cc2nc(C)nc(NC(C)c3cc4cccc(O)c4o3)c2cc1OC` (centres unmarked) [Example 28, 2-{-[(6,7-dimethoxy-2-methyquinazolin-4-yl)amino]ethyl}-1-benzofuran-7-ol] was tested, and the inhibition at 20 µM ([1]; read-out: Assay 2 (KRAS-Activation by SOS high GTP) activity expressed as % inhibition at 20 μM, at 20 μM) was 8% and the inhibition at 20 µM [2] was 46%.

Work on `COc1cc2nc(C)nc(N[C@H](C)c3ccc(Br)cc3)c2cc1OC` [Example 187, N-[(1R)-1-(4-bromophenyl)ethyl]-6,7-dimethoxy-2-methylquinazolin-4-amine] yielded an IC50 [1] of 562 nM and an IC50 [2] of 1260 nM.

`COc1cc2nc(C)nc(N[C@H](C)c3cccc(-c4cnn(CCO)c4)c3)c2cc1OC` [Example 256, 2-[4-(3-{(1R)-1-[(6,7-dimethoxy-2-methylquinazolin-4-yl)amino]ethyl}phenyl)-1H-pyrazol-1-yl]ethanol] showed an IC50 [1] of 828 nM and an IC50 [2] of 1350 nM.

Work on `COc1cc2nc(C)nc(NC(C)c3ccc(-c4ccccc4C#N)s3)c2cc1OC` (centres unmarked) [Example 245, 2-(5-{1-[(6,7-dimethoxy-2-methylquinazolin-4-yl)amino]ethyl}thiophen-2-yl)benzonitrile] yielded an IC50 [1] of 900 nM and an IC50 [2] of 918 nM.

`COc1cc2nc(C)nc(N[C@H](C)c3ccc(-c4ccccc4)cc3)c2cc1OC` [Example 196, N-[(1R)-1-(biphenyl-4-yl)ethyl]-6,7-dimethoxy-2-methylquinazolin-4-amine] gave an IC50 [1] of 1090 nM and an IC50 [2] of 6100 nM.

For `COc1cc2nc(C)nc(NC(C)c3csc(-c4cnn(CCN5CCCC5)c4)c3)c2cc1OC` (centres unmarked) [Example 254, 6,7-dimethoxy-2-methyl-N-[1-(5-{1-[2-(pyrrolidin-1-yl)ethyl]-1H-pyrazol-4-yl}thiophen-3-yl)ethyl]quinazolin-4-amine], the IC50 [1] was 1590 nM and the IC50 [2] was 3450 nM.

For `CNCc1ccccc1-c1ccc(C(C)Nc2nc(C)nc3cc(OC)c(OC)cc23)s1` (centres unmarked) [Example 250, 6,7-dimethoxy-2-methyl-N-[1-(5-{2-[(methylamino)methyl]phenyl}thiophen-2-yl)ethyl]quinazolin-4-amine], the IC50 [1] was 58.1 nM and the IC50 [2] was 70.4 nM.

Molecule `COc1cc2nc(C)nc(N[C@H](C)c3cccc(C4=CCN(C)CC4)c3)c2cc1OC` [Example 202, 6,7-dimethoxy-2-methyl-N-{(1R)-1-[3-(1-methyl-1,2,3,6-tetrahydropyridin-4-yl)phenyl]ethyl}quinazolin-4-amine] has an IC50 [1] of 979 nM and an IC50 [2] of 5320 nM.

`COc1cc2nc(C)nc(NC(C)c3ccc(-c4cccc(CCO)c4)s3)c2cc1OC` (centres unmarked) [Example 181, 2-[3-(5-{1-[(6,7-dimethoxy-2-methylquinazolin-4-yl)amino]ethyl}thiophen-2-yl)phenyl]ethanol] was tested, and the IC50 [1] was 6510 nM and the inhibition at 20 µM [2] was 45%.

`COc1cc2nc(C)nc(N[C@H](C)c3ccc(C)cc3)c2cc1OC` [Example 195, 6,7-dimethoxy-2-methyl-N-[(1R)-1-(4-methylphenyl)ethyl]quinazolin-4-amine] gave an IC50 [1] of 635 nM and an IC50 [2] of 749 nM.

With `COc1cc2nc(C)nc(N[C@H](C)c3ccc(C4CC4)cc3)c2cc1OC` [Example 197, N-[(1R)-1-(4-cyclopropylphenyl)ethyl]-6,7-dimethoxy-2-methylquinazolin-4-amine] the IC50 [1] was 303 nM and the IC50 [2] was 638 nM.

With `COc1cc2nc(C)nc(NC(C)c3ccc(-c4cnn(CCN5CCCC5)c4)s3)c2cc1OC` (centres unmarked) [Example 220, 6,7-dimethoxy-2-methyl-N-[1-(5-{1-[2-(pyrrolidin-1-yl)ethyl]-1H-pyrazol-4-yl}thiophen-2-yl)ethyl]quinazolin-4-amine] the IC50 [1] was 381 nM and the IC50 [2] was 1010 nM.
